How the values were obtained:
[1] = system: Rat skeletal muscle cell strain L6 cells; test: Effect of accelerating the glucose uptake in cultured skeletal muscle cells ([3H]-2-deoxyglucose uptake); format: cell-based; details: 10 min, 10 μM compound, cultured overnight, 2DG uptake in L6 myotubes, 37° C. 10 minutes, compared with the control group
Method: Effect of accelerating the glucose uptake in cultured skeletal muscle cells: Method: Rat skeletal muscle cell strain “L6 cells” in a confluent state was cultured in DME medium containing 2% of fetal calf serum for one week to differentiate into myotubes. The medium was replaced with the DME medium containing a compound synthesized in each of the above Reference Examples. After culturing overnight followed by the thorough washing with HEPES buffer solution, an HEPES buffer solution containing 37 kBq/ml of 10 μM [3H]-2-deoxyglucose (2DG) was added thereto. After the culture at 37° C. for 10 minutes, the radioactivity of 2DG transmigrated into the cells was determined. The effect (%) of each compound on 2DG uptake was determined as compared with that in the control group.

[2] = system: non-insulin-dependent diabetes model mice (KK mice); test: Hypoglycemic effect on non-insulin-dependent diabetes model mice (KK mice); format: in vivo; details: Mus musculus, 168 h; 30 mg/kg twice a day for one week, KK mice 8 weeks old; fasted overnight; calculated on the basis of blood glucose level (100) in the control group
Method: Hypoglycemic Effect on Non-Insulin-Dependent Diabetes Model Mice (KK Mice)
Method: A compound (30 mg/kg) was administered to non-insulin-dependent diabetes model mice (8 weeks old) twice a day for one week. After final administration, the mice were fasted overnight and then the blood glucose concentration of each mouse was determined. The hypoglycemic effect of the compound was calculated on the basis of the blood glucose level (100) in the control group.

| Compound | melting point | activity at 10 µM [1] | inhibition in vivo at 30 mg/kg [2] |
| --- | --- | --- | --- |
| CCCCCC(=O)NS(=O)(=O)c1ccccc1NC(=O)c1cccc(OCc2ccc([N+](=O)[O-])cc2)c1 [compound 26, N-[2-[3-(4-Nitrobenzyloxy)benzamido]benzenesulfonyl]hexanamide] | 138 to 141 °C | 134% |  |
| CCCCCC(=O)NS(=O)(=O)c1ccccc1NC(=O)c1cccc(OCc2ccc(OC)cc2)c1 [compound 30, N-[2-[3-(4-Methoxybenzyloxy)benzamido]benzenesulfonyl]hexanamide] | 154 to 157 °C | 131% |  |
| CCCCCC(=O)NS(=O)(=O)c1ccccc1NC(=O)c1cccc(OCC2CCCCC2)c1 [compound 34, N-[2-(3-cyclohexylmethoxybenzamido)benzenesulfonyl]hexanamide] | 112 to 113 °C | 145% |  |
| CCCCCC(=O)NS(=O)(=O)c1ccccc1NC(=O)c1cccc(OCc2ccc(C(F)(F)F)cc2)c1 [compound 41, N-[2-[3-(4-Trifluoromethylbenzyloxy)benzamido]benzenesulfonyl]hexanamide] | 142 to 143 °C | 230% |  |
| CCCCCC(=O)NS(=O)(=O)c1ccccc1NC(=O)c1ccc(C#Cc2ccccc2)cc1 [compound 49, N-[2-(4-Phenylethynylbenzamido)benzenesulfonyl]hexanamide] | 175 to 176 °C | 212% | 10.3% |
| CC(C)(C)C(=O)NS(=O)(=O)c1ccccc1NC(=O)c1ccc(C#Cc2ccccc2)cc1 [compound 51, N-[2-(4-Phenylethynylbenzamido)benzenesulfonyl]pivalamide] | 236 to 237 °C | 225% |  |
| C/C=C/C=C/C(=O)NS(=O)(=O)c1ccccc1NC(=O)c1ccc(C#Cc2ccccc2)cc1 [compound 53, Trans-N-[2-(4-phenylethynylbenzamido)benzenesulfonyl]-2,4-hexadienamide] | 208 to 209 °C |  |  |
| CC/C=C/CC(=O)NS(=O)(=O)c1ccccc1NC(=O)c1ccc(C#Cc2ccccc2)cc1 [compound 54, Trans-N-[2-(4-phenylethynylbenzamido)benzenesulfonyl]-3-hexenamide] |  | 118% |  |
| CCCSCC(=O)NS(=O)(=O)c1ccccc1NC(=O)c1ccc(C#Cc2ccccc2)cc1 [compound 58, 4-Phenylethynyl-N-(2-(2-propylthioacetylamino)sulfonylphenyl]benzamide] | 186 to 188 °C |  | 22.7% |
| CCCCCC(=O)NS(=O)(=O)c1ccccc1NC(=O)c1ccc(C#Cc2cccc(C(F)(F)F)c2)cc1 [compound 60, 4-(3-Trifluoromethyl)phenylethynyl-N-(2-hexanoylaminosulfonylphenyl)benzamide] | 194 to 196 °C | 246% | 51.1% |
| CC(=O)CCCC(=O)NS(=O)(=O)c1ccccc1NC(=O)c1ccc(C#Cc2cccc(C(F)(F)F)c2)cc1 [compound 61, 4-(3-Trifluoromethyl)phenylethynyl-N-(2-(5-ketohexanoylamino)sulfonylphenyl)benzamide] | 169 to 171 °C |  | 65.7% |
| CCCOCC(=O)NS(=O)(=O)c1ccccc1NC(=O)c1ccc(C#Cc2cccc(C(F)(F)F)c2)cc1 [compound 62, 4-(3-Trifluoromethyl)phenylethynyl-N-(2-(2-propyloxyacetylamino)sulfonylphenyl)benzamide] | 175 to 177 °C |  | 60.9% |
| CCCCCC(=O)NS(=O)(=O)c1ccccc1NC(=O)c1ccc(C#Cc2ccc(C(F)(F)F)cc2)cc1 [compound 64, 4-(4-Trifluoromethyl)phenylethynyl-N-(2-hexanoylaminosulfonylphenyl)benzamide] | 210 to 212 °C | 204% | 34.5% |
| CCCCCC(=O)NS(=O)(=O)c1ccccc1NC(=O)c1ccc(C#Cc2ccc(OC(F)(F)F)cc2)cc1 [compound 66, 4-(4-Trifluoromethoxyl)phenylethynyl-N-(2-hexanoylaminosulfonylphenyl)benzamide] | 197 to 199 °C | 94% | 28.2% |
| CC(=O)CCCC(=O)NS(=O)(=O)c1ccccc1NC(=O)c1ccc(C#Cc2ccc(OC(F)(F)F)cc2)cc1 [compound 67, 4-(4-Trifluoromethoxyl)phenylethynyl-N-(2-(5-ketohexanoylamino)sulfonylphenyl)benzamide] | 204 to 205 °C |  | 40.2% |
| CCCCCC(=O)NS(=O)(=O)c1ccccc1NC(=O)c1ccc(C#Cc2ccc(F)cc2)cc1 [compound 69, 4-(4-Fluoro)phenylethynyl-N-(2-hexanoylaminosulfonylphenyl)benzamide] | 183 to 186 °C | 240% | 27.7% |
| CC(=O)CCCC(=O)NS(=O)(=O)c1ccccc1NC(=O)c1ccc(C#Cc2ccc(F)cc2)cc1 [compound 70, 4-(4-Fluoro)phenylethynyl-N-(2-(5-ketohexanoylamino)sulfonylphenyl)benzamide] | 179 to 181 °C |  | 30.5% |
| CCCCCC(=O)NS(=O)(=O)c1ccccc1NC(=O)c1ccc(C#Cc2cccc(F)c2)cc1 [compound 72, 4-(3-Fluoro)phenylethynyl-N-(2-hexanoylaminosulfonylphenyl)benzamide] | 183 to 186 °C | 279% | 9.2% |
